According to paper PMC8369502, “High-Throughput Drug Screening System Based on Human Induced Pluripotent Stem Cell-Derived Atrial Myocytes ∼ A Novel Platform to Detect Cardiac Toxicity for Atrial Arrhythmias” (Frontiers in Pharmacology, 2021):
Values joined by “and” are separate entries in the source; they are usually repeats but may differ in a detail not shown here. Equal values may be shown once. “Also recorded” adds a separate entry of the source. Read-outs that look alike come from different tables or passages of the source.

Key:
Assay type in all cases: cell-based, human
[1] = system: AM (RA-treated hiPS-CMs, atrial-like); assay: High-throughput membrane potential recording (FluoVolt, FDSS/μCell) in AM; details: for cessation of beating (samples): 0.1 μM doses; for Beat Rate / Falling Slope / PWD80cF / Rising Slope / PWD30cF: % change from value before compound addition, 10 min after addition (Bay K 8644: 3 min); for arrest of spontaneous beating (samples): at the maximal concentration; for beating rate (in words) / falling slope of membrane potential (in words) / rising slope of membrane potential (in words): concentration range as stated in the source
Procedure: (§1) Using a high-throughput screening system (FDSS/μCell), we assessed the drug toxicity of several experimental drugs on hiPS-derived atrial myocytes as well as control hiPS-derived cardiomyocytes. Membrane potential was used as one of the parameters during the assessment.
(§2) After purification, hiPS-derived cardiomyocytes were plated in 96-well plates for downstream drug response assessment using FluoVolt™ Membrane Potential Kit. […] The comparison of variance in the response of drug administration in CT and AM was represented by the percentage of changes based on their baseline values respectively.
(§3) FluoVolt™ Membrane Potential Kit (ThermoFisher […], F10488, Massachusetts, United States) was used to measure membrane potentials. The basic procedure was performed in accordance with the manufacturer’s instructions. […] MP were recorded at excitation and emission stages at wavelengths of 470 and 540 nm, respectively. […] Stock solutions of the test compounds were prepared in 100% DMSO, and serially diluted 1/40 into compound plates for testing (0.5% DMSO was the maximum concentration in all wells). The compounds were automatically pipetted from the compound plate, and 12 μL was loaded in the wells already containing the cells with 48 μL of media. Recording data were analyzed using Waveform Analysis of Cardiomyocyte Software (Ver.1.2.1J, Hamamatsu Photonics K.K.). Data values for a well were averaged from waveforms that arose during 30 s. The beat rate (BR; beats per minute), waveform amplitude (AMP), and duration at 30, 50, and 80% of decay (PWD30, PWD 50, and PWD 80, respectively) were used as evaluation parameters. PWDs were corrected using the Fridericia formula. PWD30-80 was calculated as the difference between PWD80 and PWD30. Each parameter was calculated as percentage change (%) from the value before test compound addition.

[2] = system: CT (control hiPS-CMs without RA, ventricular-like); assay: High-throughput membrane potential recording (FluoVolt, FDSS/μCell) in CT; details: for Falling Slope / PWD30cF / PWD80cF / Rising Slope: % change from value before compound addition, 10 min after addition (Bay K 8644: 3 min); for beating rate (in words) / falling slope of membrane potential (in words) / rising slope of membrane potential (in words): concentration range as stated in the source
Procedure: as §1, §2, §3

[3] = system: hiPS-derived cardiomyocytes; assay: Cardiac differentiation of hiPSCs with RA, immunostaining (cTnT, MLC-2a, MLC-2v)
Procedure: Undifferentiated hiPSCs were maintained in AK02 medium for 2–3 days until 80% confluency was obtained. To obtain highly purified cardiomyocytes, metabolic selection was performed during post-differentiation, from day 15–26. Cardiomyocyte proportion was quantified by immunostaining with cardiac troponin-T (cTnT).
To further evaluate the gene expression of cardiac subtypes in the control hiPS-CMs (CT) and the RA-treated hiPS-CMs (AM), the cells were co-stained with myosin light chain 2a (MLC-2a: atrial isoform) and myosin light chain 2v (MLC-2v: ventricular isoform) (Supplementary Figure 1). […] In AM (MLC-2a 83.4 ± 0.63%), most cTnT-positive cells were co-positive for MLC-2a, however, very few cTnT-positive cells were found co-positive for MLC-2v (MLC-2v 14.0 ± 2.82%) (Figures 1B, C).
The hiPSCs were enzymatically dispersed and maintained until 80% confluence with StemFit® AK02N containing 10 µM Y-27632 (Wako, 036-24023). The next day, the culture medium was changed to StemFit® AK02N without Y-27632, which was maintained until the next passage. hiPSCs were seeded on a dish coated with Geltrex LDEV-Free Reduced Growth Factor (ThermoFisher […]) at 1% concentration in PBS. When the seeded cells reached 80% confluency (day-1), the culture medium was changed to StemFit® AK02N containing Matrigel® (Growth Factor Reduced, Corning, 354,230) at 1% concentration for 24 h. On day0, the culture medium was changed to Medium A (PSC Cardiomyocyte Differentiation Kit, ThermoFisher […]) containing Matrigel for 48 h. On day2, the culture medium was changed to Medium B (PSC Cardiomyocyte Differentiation Kit, ThermoFisher […]) for 48 h. On day4, the culture medium was changed to cardiomyocyte maintenance medium (PSC Cardiomyocyte Differentiation Kit, ThermoFisher […]) supplemented with or without 0.7 μM RA (Sigma Aldrich, R2625) for 72 h. On day 7, the culture medium was changed to cardiomyocyte maintenance medium, and change the medium every 2 days. The cells typically started spontaneous beating around 10 days of initiation of the differentiation protocol. Purification of cardiomyocytes was performed by using a non-glucose medium supplemented with 4 mM lactic acid for 4days/time, performed 2 times (from day 14 to day 18, and from day 21 to day 25), between the 2 times of purifying application, the medium was changed to cardiomyocyte maintenance medium for 72 h (from day 18 to day 21). After purification, the culture was continued in the cardiomyocyte maintenance medium until the functional analysis.
hiPSC-derived cardiomyocytes were fixed with 4% PFA and permeabilized with 0.1% Triton-X in PBS (-) for 15 min at 4°C. […] Fluorescence images were obtained using Operetta high content imaging system (PerkinElmer, Japan) and analyzed using Harmony analysis software (PerkinElmer, Japan).

## COc1ccc(CCN(C)CCCC(C#N)(c2ccc(OC)c(OC)c2)C(C)C)cc1OC (centres unmarked) [Verapamil]
[1]
  other parameters of membrane potential (in words): no obvious changes were observed
  cessation of beating (samples): all the AM samples
  Beat Rate: ↑
  arrest of spontaneous beating (samples): all the tested samples
  beating rate (in words): dose-dependent increase
[1]; 0.1 μM
  incidence of arrhythmia-like waveforms: arrest: 100%
[2]
  membrane potential duration (in words): decreased
  Falling Slope: ↑
  PWD30cF: ↓
  PWD80cF: ↓
  Rising Slope: ↓
  beating rate (in words): dose-dependent increases
  falling slope of membrane potential (in words): dose-dependent increases

## Cc1cccc(CCN2CCC(C(=O)c3ccc(NS(C)(=O)=O)cc3)CC2)n1 [E-4031]
[1]
  PWD30-80 (in words): prolonged; also recorded: dose-dependent increases
  PWD80cF (in words): prolonged; also recorded: dose-dependent increases
  membrane potential duration (in words): increase
  Beat Rate: ↓
  Falling Slope: ↓
  PWD80cF: ↑
  Rising Slope: ↓
  beating rate (in words): dose-dependent decrease
  falling slope of membrane potential (in words): dose-dependent decrease
  rising slope of membrane potential (in words): dose-dependent decrease
[2]
  PWD30-80 (in words): prolonged; also recorded: dose-dependent increases
  PWD80cF (in words): prolonged; also recorded: dose-dependent increases
  membrane potential duration (in words): increase
  Falling Slope: ↓
  PWD30cF: ↓
  PWD80cF: ↑
  Rising Slope: ↓
  beating rate (in words): dose-dependent decrease
  falling slope of membrane potential (in words): dose-dependent decrease
  rising slope of membrane potential (in words): dose-dependent decrease

## Nc1ccncc1 [4-Aminopridine, 4-Aminopyridine]
[1]
  PWD30cF: ↑
  PWD80cF: ↑
[1]; listed as 4-AP
  PWD30cF (in words): dose-dependent increases
  PWD50cF (in words): dose-dependent increases
[1]; listed as 4AP
  PWD30cF (in words): prolongation
  PWD50cF (in words): prolongation
[2]
  PWD30cF: ↑

## CC(C)NCC(O)COc1cccc2ccccc12 (centres unmarked) [Propranolol]
[1]
  PWD30-80 (in words): prolonged
  PWD80cF (in words): prolonged
  Beat Rate: ↓
  Falling Slope: ↓
  PWD80cF: ↑
  Rising Slope: ↓
  beating rate (in words): dose-dependent decrease
  falling slope of membrane potential (in words): dose-dependent decrease
  rising slope of membrane potential (in words): dose-dependent decrease
[1]; 10 μM
  incidence of arrhythmia-like waveforms: irregular beat: 11%
[1]; 10 μM, count of samples
  irregular beating (samples): 1 out of 9
[1]; 30 μM
  incidence of arrhythmia-like waveforms: arrest: 100%
[1]; 100 μM
  incidence of arrhythmia-like waveforms: arrest: 100%
[2]
  PWD30-80 (in words): prolonged
  PWD80cF (in words): prolonged
  concentration at which irregular beating or EAD appeared: above 10 μM
  Falling Slope: ↓
  PWD30cF: ↓
  PWD80cF: ↑
  Rising Slope: ↓
  beating rate (in words): dose-dependent decrease
  falling slope of membrane potential (in words): dose-dependent decrease
  rising slope of membrane potential (in words): dose-dependent decrease
[2]; 10 μM
  incidence of arrhythmia-like waveforms: EAD: 25%
  incidence of arrhythmia-like waveforms: irregular beat: 17%
[2]; 30 μM
  incidence of arrhythmia-like waveforms: EAD: 42%
  incidence of arrhythmia-like waveforms: arrest: 17%
  incidence of arrhythmia-like waveforms: irregular beat: 8%
[2]; 100 μM
  incidence of arrhythmia-like waveforms: arrest: 100%

## CC1=C(/C=C/C(C)=C/C=C/C(C)=C/C(=O)O)C(C)(C)CCC1 [RA, retinoic acid]
[3]; AM (RA-treated hiPS-CMs)
  MLC-2a positive cells: 83.4 ± 0.63%
  MLC-2v positive cells: 14.0 ± 2.82%
[3]; AM (RA-treated hiPS-CMs), 0.7 μM RA day 4-7, n = 3
  proportion of cTnT-positive cells: 96.79 ± 1.81% and 96.8 ± 1.81%
[3]; with vs without RA
  cardiomyocyte differentiation efficiency (in words): did not influence cardiomyocyte differentiation efficiency

## C[N+](C)(C)CCOC(N)=O [Carbachol]
[1]
  EAD / irregular beating (in words): No irregular beating or EAD was elicited
  Beat Rate: ↓
  Rising Slope: ↓
  beating rate (in words): decrease
  rising slope of membrane potential (in words): decrease
[1]; listed as carbachol
  EAD / irregular beating (in words): caused irregular beats early after application
[2]
  EAD / irregular beating (in words): No irregular beating or EAD was elicited
  response of membrane potential parameters (in words): no significant difference was observed

## COC(=O)C1=C(C)NC(C)=C([N+](=O)[O-])C1c1ccccc1C(F)(F)F (centres unmarked) [Bay K 8644]
[1]
  PWD30cF (in words): prolonged
  membrane potential duration (in words): prolonged
  Falling Slope: ↓
  PWD30cF: ↑
  PWD80cF: ↑
  Rising Slope: ↑
  falling slope of membrane potential (in words): dose-dependent decrease
[1]; listed as Bay K8644
  PWD30cF (in words): prolonged significantly
[2]
  PWD30cF (in words): prolonged
  membrane potential duration (in words): prolonged
  Falling Slope: ↓
  PWD30cF: ↑
  PWD80cF: ↑
  falling slope of membrane potential (in words): dose-dependent decrease
[2]; listed as Bay K8644
  PWD30cF (in words): prolonged significantly

## COc1ccc([C@@H]2Sc3ccccc3N(CCN(C)C)C(=O)[C@@H]2OC(C)=O)cc1 [Diltiazem]
[1]
  other parameters of membrane potential (in words): no obvious changes were observed
  cessation of beating (samples): all the AM samples
  Beat Rate: ↑
  PWD30cF: ↓
  arrest of spontaneous beating (samples): all the tested samples
  beating rate (in words): dose-dependent increase
[1]; 1 μM
  incidence of arrhythmia-like waveforms: arrest: 100%
[2]
  membrane potential duration (in words): decreased
  Falling Slope: ↑
  PWD30cF: ↓
  PWD80cF: ↓
  beating rate (in words): dose-dependent increases
  falling slope of membrane potential (in words): dose-dependent increases

## CCS(=O)(=O)N(C)[C@H]1c2cc(C#N)ccc2OC(C)(C)[C@@H]1O (racemic) [Chromanol 293B]
[1]
  membrane potential duration (in words): increase
  PWD30cF: ↑
  Rising Slope: ↓
  rising slope of membrane potential (in words): dose-dependent decrease
[2]
  membrane potential duration (in words): increase
  Falling Slope: ↓
  PWD30cF: ↑
  PWD80cF: ↑
  Rising Slope: ↓
  rising slope of membrane potential (in words): dose-dependent decrease
